Our source for the IC50 values is patent publication US7994321B2, “Substituted thieno[3,2-C]pyridine-7-carboxylic acid derivatives” (Hoffmann-La Roche Inc., priority 2006, dated 2011).

As usually defined, the IC50 is the midpoint of a concentration-inhibition curve.

The assay addresses T1, Human recombinant EE-tagged PDGFRβ (Homo sapiens, UniProt P09619).
T1 construct: made in house; host or cells: Sf9 cells
As to the kind of experiment: PDGFRβ IMAP Kinase Assay (fluorescence polarization). Format: biochemical. The note with it: Kinase Enzyme Inhibition Assay; IMAP FP; FITC-labeled peptide substrate, ATP; 60 minutes at room temperature. The source says: The assay uses IMAP Fluorescence polarization (FP) assay platform based on the high affinity binding of phosphate by immobilized metal coordination complexes. The substrate used in this assay is a Fitc labeled peptide: FITC-ALTSNQEYLDLSMPL. Upon substrate peptide's phosphorylation, the IMAP binding reagent complexes with phosphate groups on phosphopeptides generated in the PDGFRβ reaction, which causes a change in the rate of the molecular motion of the peptide, and results in an increase in the FP values.
• Enzyme: Human recombinant EE-tagged PDGFRβ, expressed in Sf9 cells (stock concentration 74.5 μM, from Protein Biochemistry, RDT); store at −80° C. • Substrate: Synthesized Fitc labeled peptide: FITC-ALTSNQEYLDLSMPL; store at −20° C. • Positive Control Staurosporine (1 mM stock in DMSO, Calbiochem) • Robotic System Workstation: Tomtec Quadra • Reader: Acquest 384.1356 (Molecular Devices); FP reading method • Assay Plate: BD Falcon 30-μL 384 assay plate (Cat # 353972), and Costar 384 black plate (Cat # 3710) Assay Procedures: (1) Prepare Assay Buffer-MOPS Buffer: 20 mM MOPS (Teknova) pH 7.1, 5 mM sodium acetate, 6.25 mM MgCl2, 0.5 mM EDTA, 1 mM DTT, 0.04 mM NaVO4, 0.02% BSA. (2) Prepare Substrate Mix containing peptide (1 μM) and ATP (48.6 μM) in assay buffer. Add 8 μL of Substrate Mix in BD Falcon assay plates. (3) Prepare PDGFRβ (0.2 μM) in assay buffer. (4) Dilute compounds and positive control in DMSO (40 fold, 4-pt in series). Add 18 μL/well of assay buffer into 384 polypropylene compound plates containing 2 μL of compound solution in each well, mix and transfer 4 μl/well of diluted solution into the BD Falcon assay plates containing 8 μL of Substrate Mix (step 2) in each well. Then add 4 μl/well of PDGFRβ solution (step 3) in all wells except blank wells. Add 4 μl/well of assay buffer into blank wells. (5) Incubate at room temperature for 60 minutes. (6) Prepare 1:400 IMAP bead mix following the instruction given in the IMAP Bead Binding System Kit (Molecular Devices), and add 30 μl/well of IMAP bead mix in Costar 384 black plates. (7) Transfer 2 μl/well of reaction solution (step 4-5) into Costar 384 black plates containing 30 μl/well of bead mix (step 6). (8) Incubate at RT for 2 hours. (9) Read FP values at 485 nm and 530 nm on Acquest.
Kinase Enzyme Inhibition Assay (IC50)

T1 sequence (P09619 33-1106): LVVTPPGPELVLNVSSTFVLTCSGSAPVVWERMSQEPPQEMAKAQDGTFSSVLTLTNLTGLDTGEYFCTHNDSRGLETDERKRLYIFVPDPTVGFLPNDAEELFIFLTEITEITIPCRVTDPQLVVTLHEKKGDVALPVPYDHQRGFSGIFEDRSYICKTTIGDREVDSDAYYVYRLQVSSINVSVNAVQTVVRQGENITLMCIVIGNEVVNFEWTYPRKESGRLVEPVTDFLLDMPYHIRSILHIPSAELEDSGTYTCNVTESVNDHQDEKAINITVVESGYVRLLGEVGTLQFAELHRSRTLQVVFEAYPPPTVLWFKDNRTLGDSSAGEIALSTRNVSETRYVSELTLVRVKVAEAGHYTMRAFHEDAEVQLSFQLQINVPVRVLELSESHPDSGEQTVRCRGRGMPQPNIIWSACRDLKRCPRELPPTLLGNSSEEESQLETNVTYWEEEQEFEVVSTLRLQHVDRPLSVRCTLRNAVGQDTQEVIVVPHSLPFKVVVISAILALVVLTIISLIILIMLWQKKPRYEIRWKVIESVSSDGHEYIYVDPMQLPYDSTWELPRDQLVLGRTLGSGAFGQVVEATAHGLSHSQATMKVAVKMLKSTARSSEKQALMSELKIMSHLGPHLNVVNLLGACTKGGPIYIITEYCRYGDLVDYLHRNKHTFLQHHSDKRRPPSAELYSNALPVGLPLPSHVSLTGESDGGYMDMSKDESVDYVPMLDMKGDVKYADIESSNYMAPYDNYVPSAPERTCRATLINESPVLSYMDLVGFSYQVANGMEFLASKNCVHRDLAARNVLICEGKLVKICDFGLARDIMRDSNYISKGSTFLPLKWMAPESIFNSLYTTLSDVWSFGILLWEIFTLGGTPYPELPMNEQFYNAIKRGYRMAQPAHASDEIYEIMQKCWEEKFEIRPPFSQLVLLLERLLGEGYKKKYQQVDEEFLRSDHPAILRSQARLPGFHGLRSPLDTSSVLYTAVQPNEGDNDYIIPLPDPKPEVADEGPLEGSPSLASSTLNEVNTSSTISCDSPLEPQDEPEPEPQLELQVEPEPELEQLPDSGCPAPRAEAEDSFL

For `O=C(Nc1cccc(OCc2csc3c(C(=O)NCCO)cncc23)c1)c1cccc(Cl)c1` [Example 16, 3-[3-(3-Chloro-benzoylamino)-phenoxymethyl]-thieno[3,2-c]pyridine-7-carboxylic acid (2-hydroxy-ethyl)-amide], the IC50 is 113 nM. For the compound `CCOC(=O)c1cncc2c(COc3cccc(NC(=O)c4ccc(F)cc4)c3)csc12` [Example 8, 3-[3-(4-Fluoro-benzoylamino)-phenoxymethyl]-thieno[3,2-c]pyridine-7-carboxylic acid ethyl ester], the half-maximal inhibitory concentration (IC50) was 340 nM. With `O=C(Nc1cccc(OCc2csc3c(C(=O)NCCO)cncc23)c1)c1ccccc1` [Example 7, 3-(3-Benzoylamino-phenoxymethyl)-thieno[3,2-c]pyridine-7-carboxylic acid (2-hydroxy-ethyl)-amide] the figure was 990 nM; with `CCOC(=O)c1cncc2c(COc3cccc(NC(=O)c4cccc(OC)c4)c3)csc12` [Example 13, 3-[3-(3-Methoxy-benzoylamino)-phenoxymethyl]-thieno[3,2-c]pyridine-7-carboxylic acid ethyl ester], 440 nM; with `COc1cccc(C(=O)Nc2ccc(C)c(OCc3csc4c(C(=O)NCCO)cncc34)c2)c1` [Example 31, 3-[5-(3-Methoxy-benzoylamino)-2-methyl-phenoxymethyl]-thieno[3,2-c]pyridine-7-carboxylic acid (2-hydroxy-ethyl)-amide], less than 20000 nM.
